Reference: PMC10046037, “GABRG2 Variants Associated with Febrile Seizures” (Biomolecules, 2023)

Biological target: T1, α1β3γ2 GABAA receptor, γ2F464S variant (Homo sapiens, UniProt P14867+P18507+P28472, F464S)
T1 construct: expressed in transfected cells; host or cells: HEK293T
T1 sequence (P14867 28-456): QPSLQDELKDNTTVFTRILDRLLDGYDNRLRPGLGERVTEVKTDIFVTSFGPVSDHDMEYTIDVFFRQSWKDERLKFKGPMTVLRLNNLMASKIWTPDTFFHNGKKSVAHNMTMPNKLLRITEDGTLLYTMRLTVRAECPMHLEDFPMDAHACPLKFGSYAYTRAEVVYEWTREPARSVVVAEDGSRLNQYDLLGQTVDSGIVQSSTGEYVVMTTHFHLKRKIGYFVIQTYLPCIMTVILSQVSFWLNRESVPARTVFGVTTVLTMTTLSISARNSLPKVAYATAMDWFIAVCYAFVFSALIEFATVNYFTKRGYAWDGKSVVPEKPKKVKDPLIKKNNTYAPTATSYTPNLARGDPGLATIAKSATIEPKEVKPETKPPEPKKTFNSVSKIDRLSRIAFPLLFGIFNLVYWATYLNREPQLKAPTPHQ
T1 sequence (P28472 26-473 isoform P28472-2): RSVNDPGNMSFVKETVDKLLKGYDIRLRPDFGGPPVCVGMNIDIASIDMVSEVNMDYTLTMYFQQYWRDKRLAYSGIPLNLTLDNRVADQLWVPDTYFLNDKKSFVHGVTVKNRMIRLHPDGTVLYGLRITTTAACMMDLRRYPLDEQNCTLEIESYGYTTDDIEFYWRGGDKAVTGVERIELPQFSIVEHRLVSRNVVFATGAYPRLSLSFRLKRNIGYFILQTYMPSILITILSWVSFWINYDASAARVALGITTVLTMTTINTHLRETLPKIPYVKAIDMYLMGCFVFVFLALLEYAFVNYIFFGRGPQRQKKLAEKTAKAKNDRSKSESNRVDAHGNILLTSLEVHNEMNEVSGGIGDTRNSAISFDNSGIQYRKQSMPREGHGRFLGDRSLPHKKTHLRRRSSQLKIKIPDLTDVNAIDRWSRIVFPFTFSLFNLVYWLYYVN
T1 sequence (P18507 40-475 F464S): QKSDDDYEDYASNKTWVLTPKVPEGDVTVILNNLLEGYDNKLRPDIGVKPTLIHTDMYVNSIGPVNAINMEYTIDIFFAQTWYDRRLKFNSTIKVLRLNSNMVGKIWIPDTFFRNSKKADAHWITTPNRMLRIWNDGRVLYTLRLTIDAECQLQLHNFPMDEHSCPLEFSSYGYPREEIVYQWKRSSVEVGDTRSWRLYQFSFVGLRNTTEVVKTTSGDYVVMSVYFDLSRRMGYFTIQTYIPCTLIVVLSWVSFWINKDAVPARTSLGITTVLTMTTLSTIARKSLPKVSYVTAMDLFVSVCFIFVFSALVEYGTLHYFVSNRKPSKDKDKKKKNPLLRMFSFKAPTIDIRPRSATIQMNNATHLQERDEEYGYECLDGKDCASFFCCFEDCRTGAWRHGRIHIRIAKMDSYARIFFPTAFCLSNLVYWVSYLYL
Assay: Automated patch clamp of GABA-elicited currents (SyncroPatch 384PE), γ2F464S
Format: cell-based
Conditions: mean
Description: The coding sequences of human α1 (GABRA1, NM_000806), β3 (GABRB3, NM_021912), and γ2 (GABRG2, NM_198904.2) GABAAR subunits were subcloned into the pcDNA3.1 expression vectors (Invitrogen, Waltham, MA, USA).
HEK293T cells (ATCC, CRL-11268) were cultured at 37 °C in a humidified 5% CO2 incubator and maintained in Dulbecco’s modified Eagle’s medium (Invitrogen) supplemented with 10% fetal bovine serum (Life Technologies, Carlsbad, CA, USA), and 100 IU/mL of penicillin/streptomycin (Life Technologies). For the expression experiments, 4 × 10^5 cells were transfected using polyethylenimine (PEI) reagent (40 kD, Polysciences, Warrington, PA, USA) at a DNA: to transfection reagent ratio of 1:2.5 and harvested 36 h after transfection. To express WT and variant α1β3γ2 receptors, a total of 3 µg of α1, β3, and γ2 (WT or mutant) subunit cDNAs were transfected at a ratio of 1:1:1 into 60 mm culture dishes. For the mock-transfected condition, an empty pcDNA3.1 vector was added for a final cDNA transfection amount of 3 μg. For the electrophysiology experiments, 2.5 × 10^5 cells were plated in 100 mm culture dishes and transfected after 24 h with 3 μg of cDNA of each α1, β3, γ2 (wild-type or mutant) subunit, using X-tremeGENE HP DNA transfection Reagent (Roche Diagnostics, Basel, Switzerland), following the manufacturer’s protocol. Recordings were obtained forty-eight hours after transfection.
Whole-cell patch clamp recordings were conducted according to the manufacturer’s standard procedure for the SyncroPatch 384 [31]. Whole-cell voltage-clamp recordings were performed at room temperature on HEK293T cells 48 h after transfection with GABAAR subunits, using the SyncroPatch 384PE (Nanion Technologies, Munich, Germany). Cells, at a concentration of 400,000 cells/mL, were harvested in suspension in external solution containing 140 mM of NaCl, 2 mM of CaCl2, 4 mM of KCl, 1 mM of MgCl2, 5 mM of glucose, and 10 mM of HEPES (pH 7.4 with NaOH, 298 mOsm). The cells were loaded in a multi-hole (4 holes per well) 384-well Nanion patch clamp (NPC) chip with a thick borosilicate glass bottom and an average resistance pore size of […]. Built-in electrophysiological protocols were used, and the data were digitized using PatchControl 384 (Nanion Technologies) application. Using PatchControl 384, electrophysiological parameters, such as seal resistance, capacitance, and series resistance, were determined for each well after the application of a test pulse, and subsequently monitored over time. […] The currents were normalized to the maximal response of each well, and the concentration–response curves were calculated from single-point additions. The EC50 values for each variant or wild-type receptor were calculated across multiple wells for each experimental condition.

SMILES: NCCCC(=O)O [GABA, γ-aminobutyric acid]
- Deactivation (1 mM GABA for 5 ms, HEK293T, -80 mV): 332.6 ms
- IMAX (maximal GABA-evoked peak current) (1 mM GABA for 5 ms, HEK293T): 0.96 nA
- IMAX variant/IMAX WT (1 mM GABA): 47.93%
- Rise Time (10–90% rise time, 1 mM GABA for 5 ms, HEK293T): 29.22 ms
